Measured values taken from ChEMBL document CHEMBL1130970, “Design and synthesis of a water-soluble taxol analogue: taxol-sialyl conjugate” (Bioorg Med Chem Lett, 1998).
In brackets after ≈: the same amount, converted by molar mass.

How the values were obtained:
A-427 [1] = assay: Inhibitory concentration in human lung carcinoma A427/VCR cell line; assay type: functional, cell-based
A-427 [2] = assay: Inhibitory concentration in human lung carcinoma A427 cell line; assay type: functional, cell-based
[3] = Solubility was determined; assay type: physicochemical
Sus scrofa = organism: Sus scrofa; assay: Concentration that induces microtubule assembly (tubulin obtained from porcine brain) by 50% in the absence of GTP; assay type: functional

Row | IC50 (A-427 [1]) | IC50 (A-427 [2]) | solubility [3] | Compound | ED50 (Sus scrofa)
1 | 1 µM | 0.1 µM | 28 mg/mL (≈ 21.2 mM) | CC(=O)NC1C(O)CC(OCCOCCOCCNC(=O)O[C@H]2C[C@H]3OC[C@@]3(OC(C)=O)C3[C@H](OC(=O)c4ccccc4)[C@]4(O)C[C@H](OC(=O)[C@H](O)[C@@H](NC(=O)c5ccccc5)c5ccccc5)C(C)=C([C@@H](OC(C)=O)C(=O)[C@@]32C)C4(C)C)(C(=O)O)OC1[C@H](O)[C@@H](O)CO (stereo not given in full) | 3.86 µM
2 | – | – | – | CC(=O)O[C@H]1C(=O)[C@@]2(C)[C@H]([C@H](OC(=O)c3ccccc3)[C@]3(O)C[C@H](OC(=O)[C@H](O)[C@@H](NC(=O)c4ccccc4)c4ccccc4)C(C)=C1C3(C)C)[C@]1(OC(C)=O)CO[C@@H]1C[C@@H]2O [PACLITAXEL] | 0.86 µM
